Experimental data from BindingDB's records for patent US11648254 (Kumquat Biosciences, 2023).

target: T1, Son of sevenless homolog 1 (Homo sapiens, UniProt Q07889); experiment: Ras-SOS Interaction Assay
T1 sequence (Q07889 whole entry): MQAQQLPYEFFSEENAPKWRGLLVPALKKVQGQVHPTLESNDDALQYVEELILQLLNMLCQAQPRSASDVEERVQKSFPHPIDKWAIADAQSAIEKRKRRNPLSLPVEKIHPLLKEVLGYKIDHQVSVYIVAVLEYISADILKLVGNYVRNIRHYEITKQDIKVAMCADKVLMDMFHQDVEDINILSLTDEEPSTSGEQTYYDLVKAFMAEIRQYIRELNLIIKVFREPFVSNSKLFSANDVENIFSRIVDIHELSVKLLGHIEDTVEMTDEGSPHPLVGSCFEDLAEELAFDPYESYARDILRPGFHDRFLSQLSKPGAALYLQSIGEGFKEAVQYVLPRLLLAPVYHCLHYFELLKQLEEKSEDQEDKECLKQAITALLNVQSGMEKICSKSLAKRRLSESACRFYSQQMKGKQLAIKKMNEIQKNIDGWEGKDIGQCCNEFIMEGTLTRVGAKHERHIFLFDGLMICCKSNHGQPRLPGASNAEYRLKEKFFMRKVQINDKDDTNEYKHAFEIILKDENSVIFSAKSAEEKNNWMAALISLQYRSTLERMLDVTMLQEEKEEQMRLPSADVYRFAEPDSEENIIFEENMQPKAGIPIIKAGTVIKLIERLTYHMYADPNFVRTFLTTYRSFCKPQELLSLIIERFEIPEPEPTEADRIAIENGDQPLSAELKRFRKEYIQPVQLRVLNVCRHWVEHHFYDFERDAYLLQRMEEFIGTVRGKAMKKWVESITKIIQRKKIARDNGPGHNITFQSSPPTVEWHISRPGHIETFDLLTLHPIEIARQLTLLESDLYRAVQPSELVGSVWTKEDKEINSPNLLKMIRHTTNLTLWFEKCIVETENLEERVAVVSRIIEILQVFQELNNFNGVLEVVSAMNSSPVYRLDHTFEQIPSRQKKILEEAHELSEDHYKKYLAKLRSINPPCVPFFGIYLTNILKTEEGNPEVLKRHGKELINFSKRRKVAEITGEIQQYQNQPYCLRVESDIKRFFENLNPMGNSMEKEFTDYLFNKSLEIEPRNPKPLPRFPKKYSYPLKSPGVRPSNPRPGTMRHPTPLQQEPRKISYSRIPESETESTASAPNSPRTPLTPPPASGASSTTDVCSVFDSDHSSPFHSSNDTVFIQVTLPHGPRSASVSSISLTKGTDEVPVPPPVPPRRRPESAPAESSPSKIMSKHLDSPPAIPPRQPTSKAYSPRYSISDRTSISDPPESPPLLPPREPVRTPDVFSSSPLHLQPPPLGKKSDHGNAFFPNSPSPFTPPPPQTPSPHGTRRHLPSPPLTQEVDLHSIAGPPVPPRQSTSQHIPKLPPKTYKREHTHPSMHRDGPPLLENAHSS
Description: The ability of any compound of the present disclosure to reduce a Ras protein signaling output by, e.g., interfering or disrupting interaction (or binding) between SOS1 and a Ras protein can be assessed in vitro. For example, the equilibrium interaction of human SOS1 (hSOS1) with human wildtype Kras or K-Ras mutant (e.g., hK-Ras G12C mutant, or hK-RasG12C) can be assessed as a proxy or an indication for a subject compound's ability to inhibit SOS. Detection of such interaction is achieved by measuring homogenous time-resolved fluorescence resonance energy transfer (HTRF) from (i) a fluorescence resonance energy transfer (FRET) donor (e.g., antiGST-Europium) that is bound to GST-tagged K-RasG12C to (ii) a FRET acceptor (e.g., anti-6His-XL665) bound to a His-tagged hSOS1. […] A Ras working solution is prepared in assay buffer containing typically 10 nM of the protein construct (e.g., GST-tagged hK-RasG12C) and 2 nM of the FRET donor (e.g., antiGST-Eu(K) from Cisbio, France). A SOS1 working solution is prepared in assay buffer containing typically 10 nM of the protein construct (e.g., His-hSOS1) and 10 nM of the FRET acceptor (e.g., anti-6His-XL665 from Cisbio, France). An inhibitor control solution is prepared in assay buffer containing 10 nM of the FRET acceptor without the SOS1 protein. A fixed reaction mixture with or without test compound is transferred into a 384-well plate. Ras working solution is added to all wells of the test plate. SOS1 working solution is added to all wells except for those that are subsequently filled the inhibitor control solution.

Structure (SMILES) | IC50 [nM]
COc1nc2nc(C)nc(N[C@H](C)c3cccc(C(F)F)c3F)c2cc1C1CCN(C(=O)NC2COC2)CC1 [US11648254, Compound 116] | < 100
COc1nc2nc(C)nc(N[C@H](C)c3cccc(C(F)F)c3F)c2cc1[C@H]1C[C@@H](NC(=O)C2COC2)C1 [US11648254, Compound 125] | < 100
Cc1nc(N[C@H](C)c2cccc(C(F)F)c2F)c2cc(S(=O)(=O)C3CCN(C)CC3)c(Cl)nc2n1 [US11648254, Compound 132] | < 100
COCCOc1nc2nc(C)nc(N[C@H](C)c3cccc(C(F)F)c3F)c2cc1C1(C#N)CC1 [US11648254, Compound 151] | < 100
Cc1nc(N[C@H](C)c2cccc(C(F)F)c2F)c2cc(C3(C#N)CC3)c(O[C@H]3CCOC3)nc2n1 [US11648254, Compound 297] | < 100
COc1nc2ncnc(N[C@H](C)c3cccc(C(F)(F)F)c3C)c2cc1C1CCS(=O)(=O)CC1 [US11648254, Compound 373] | < 100
COc1nc2ncnc(N[C@H](C)c3cccc(C(F)(F)F)c3C)c2cc1C1CCN(C2CCOCC2)CC1 [US11648254, Compound 374] | < 100
COc1nc2nc(C)nc(N[C@H](C)c3cccc(C(F)(F)C4CCN(C(C)C)CC4)c3F)c2cc1C1(C#N)CC1 [US11648254, Compound 377] | < 100

Results, then the molecule that gave them:

IC50 [nM] | Structure (SMILES)
< 100 | COc1nc2nc(C)nc(N[C@H](C)c3cccc(C(F)(F)F)c3C)c2cc1C1CCS(=O)(=O)CC1 [US11648254, Compound 118]
< 100 | COc1nc2nc(C)nc(N[C@H](C)c3cccc(C(F)(F)C4CCCO4)c3F)c2cc1C1CCS(=O)(=O)CC1 (some centres not stated) [US11648254, Compound 148]
< 100 | COc1nc2nc(C)nc(N[C@H](C)c3cccc(C(C)(F)F)c3F)c2cc1C1CCS(=O)(=O)CC1 [US11648254, Compound 150]
< 100 | COc1nc2nc(C)nc(N[C@H](C)c3cccc(C(F)(F)C4CN(C)C4)c3)c2cc1N1CCS(=O)(=O)CC1 [US11648254, Compound 272]
